According to US20260137807A1, “COMPOSITIONS AND METHODS FOR DELIVERING A MACROMOLECULE TO A CELL” (AstraZeneca AB, priority 2022, published 2026):

Assays:
MALAT1 mRNA = test: MALAT1 knockdown by gapmer, real-time PCR; type: cell-based, mouse; settings: 2 μM AZ3327 with 2 μM gapmer, N2A cells, FIG. 28
Protocol: N2A cells were cultured in Dulbecco's modified eagle medium (Gibco, 31,966) containing 10% fetal bovine serum (Gibco, 10,270) and were maintained at 37° C. in a humidified atmosphere containing 5% CO2, 21% O2.
For knockdown analysis of the gapmers, 24-well plates 50,000 N2A cells in 500 μL total volume of media per well. Twenty-four hours later, the cells were treated with 2 μM MALAT1-targeting gapmer oligonucleotide having the sequence GM5CAttm5ctaatagm5cAGM5C, where m5c is 5-methylcytidine and capital letters are LNA nucleosides (SEQ ID NO:4) (Oligo Only), 2 μM MALA T1-targeting gapmer oligonucleotide and simultaneously 2 μM AZ3327 (2 μM AZ3327), or Lipofectamine-complexed MALAT1 Oligonucleotide at 200 nM (LF2000). All treatments were performed in biological triplicates. […] RNA concentration was measured via Nanodrop and cDNA was synthesized with High Capacity cDNA Reverse Transcription kit as per manufacturer's instructions (ThermoFisher Scientific, 4368814).
Real-time PCR reactions were run on QuantStudio 7 Flex Real-Time PCR System (Applied Biosystems) using MALAT1 TaqMan assays (mouse Mm01227912, Applied Biosystems) following the manufacturer's instructions. […] The absolute mRNA expression levels for MALAT1 were calculated by linear regression fitting the PCR product to a standard curve. […]

HeLa Luc705 cells = test: Splice switching activity assay (Luc705 luciferase reporter), Example 4A; type: cell-based
Text: (§1) HeLa Luc705 and Huh7 Luc705 cells were used to screen and characterize the SMC generated in Example 2 for their ability to increase levels of an SSO-induced splice variant by co-treatment of the cells with the SSO and SMC. The Luc705 reporter construct was used for quantitation of luciferase protein produced as a result of functional SSO delivery. (Kang et al. (1998) Biochemistry, 37(18):6235-6239; Rocha et al. (2016) Four Novel Splice-Switch Reporter Cell Lines: Distinct Impact of Oligonucleotide Chemistry and Delivery Vector on Biological Activity. Nucleic Acid Ther. 26(6):381). Briefly, a plasmid carrying the luciferase coding sequence interrupted by an insertion of intron 2 from β-globin pre-mRNA carrying a cryptic splice site was stably transfected into cells. Unless the aberrant slice site was masked by an antisense oligonucleotide, the pre-mRNA of luciferase was improperly processed.
(§2) HeLa Luc705 and Huh7 Luc705 cells were seeded in 96-well plates at 10,000 cells per well in growth media containing 1 μM Luc705-SSO and incubated to allow adherence and oligo internalization. After 24 hours, 10 μl of SMC diluted in Growth Media (DMEM+10% FBS) was added into each well. After 2 hours, media was removed from the wells and replaced with fresh growth media for 4 hours to allow for translation of the variant proteins. The media was then removed, and cells were lysed with 0.1% Triton-PBS.
(§3) To detect luciferase activity, 30 μL of cell lysate was transferred to white-walled 96-well plates. Luciferase intensity in each well was measured using a GloMax® 96 Microplate Luminometer machine (Promega) following auto-injection of 25 μL Luciferin substrate (Firefly Luciferase Assay System: Promega) per well. Photon measurements were acquired for 10 seconds, starting 2 seconds after injection.
(§4) To determine whether AZ4800 (Compound 2, FIG. 1B) and SSO must be present in the cell media simultaneously for Compound 2 to produce its synergistic effects, the treatment plan was modified from the UNC2383 treatment plan detailed by Wang et al. (2017) ACS Chem. Biol. 12(8):1999-2007 to include a 24 hour pre-treatment with SSO, followed by the addition of Compound 2 for two hours, followed by the removal of SSO and Compound 2, and finally a 4-hour protein translation period (FIG. 10).

Huh7 Luc705 cells = test: as above; type: cell-based
Text: as §1, §2, §3, §4

[1] = test system: Luc705 pre-mRNA in HeLa Luc705 cells; test: RT-PCR of corrected luciferase mRNA; type: cell-based; settings: with SSO, FIG. 9
Protocol: (§5) The percentage of corrected luciferase mRNA was quantified using a previously validated RT-PCR protocol. (Saher et al. (2019) Pharmaceutics. 11(12):666) Total RNA was extracted from HeLa Luc705 and Huh7 Luc705 cells using TRI Reagent (Sigma-Aldrich) according to the manufacturer's instructions.
(§6) For RT-PCR reactions using ONE STEP RT-PCR kit (QIAGEN), three nanograms of isolated RNA were utilized. The total reaction volume was 20 μL and the primer sequences used were:
(§7) The program for the RT-PCR was as follows: 55° C., 35 min, then 95° C., 15 min, for the reverse transcription step, directly followed by the PCR (94° C., 30 s, then 55° C., 30 s, then 72° C., 30 s) for 30 cycles and the final extension 72° C., 10 min. The PCR products were analyzed using a 1% agarose gel in 0.5× TAE buffer and visualized by SYBR Gold (Invitrogen, Molecular products) staining.
(§8) Versadoc imaging system with a cooled CCD camera (BioRad, Hercules, CA, USA) was used for the analysis of gels. Band intensities were analyzed with the Quantity One software (BioRad, Hercules, CA, USA). The percentage of correction was calculated using this equation (Band intensity of corrected RNA*100/(Band intensity of corrected RNA+Band intensity of uncorrected RNA).

[2] = test system: Luc705 pre-mRNA in Huh7 Luc705 cells; test: RT-PCR of corrected luciferase mRNA; type: cell-based; settings: with SSO, Huh7, FIG. 9
Protocol: as §5, §6, §7, §8

For `COc1nn(C2CCNCC2)cc1Nc1ncc(F)c(-n2ccc3c(C#N)cccc32)n1` [Compound 4], the “knockdown of MALAT1 mRNA expression as compared to oligo alone” value (MALAT1 mRNA) was “enhanced knockdown of MALAT1 mRNA expression”.

`COc1nn(C2CCNCC2)cc1Nc1ncc(Cl)c(-n2ccc3c(C#N)cccc32)n1` [Compound 2] was tested, and the “increase in SSO activity” value (HeLa Luc705 cells; 1 μM SSO, 10, 5 or 1 μM compound for 2 hours, FIG. 2A) was “substantially higher increase in SSO activity than UNC2383”, the “increase in functional SSO activity” value (HeLa Luc705 cells; 5 μM compound, 1 μM SSO or 100 nM SSO, FIG. 2B) was “increase in activity” and the “SSO activity, preload only” value (HeLa Luc705 cells; SSO only pre-treated, removed when compound added, FIG. 11A) was “no activity was seen”. The “increase in SSO activity with lengthened pre-treatment” value (HeLa Luc705 cells; SSO pre-treatment 48 hours instead of 24, FIG. 12A) was “more pronounced”, the “increase in SSO activity” value (HeLa Luc705 cells; co-treatment up to 5 μM, plateauing after 2 hours, FIG. 11C) was 100 fold and the “SSO activity without the pre-treating step” value (HeLa Luc705 cells; no pre-load, FIG. 13A) was “significant activity was observed”. The “increase in SSO activity with lengthened pre-treatment” value (Huh7 Luc705 cells; SSO pre-treatment 48 hours instead of 24, FIG. 12B) was “more pronounced”, the “SSO activity without the pre-treating step” value (Huh7 Luc705 cells; no pre-load, FIG. 13B) was “significant activity was observed” and the “levels of splice-switching (functional mRNA)” value [1] was “greater levels of splice-switching than transfection with SSO using Lipofectamine 2000”. The “levels of splice-switching (functional mRNA)” value [2] was “greater levels of splice-switching than transfection with SSO using Lipofectamine 2000”.
